What all share (format): functional
One test concerns Bacillus subtilis. Nature of the test: Antibacterial activity against Bacillus subtilis assessed as bacterial growth inhibition by CLSI protocol based broth microdilution assay. (In broth dilution the organism is exposed to a series of concentrations in liquid medium.)
The next test relates to Mycolicibacterium phlei. The experiment in a line: Antibacterial activity against Mycobacterium phlei assessed as bacterial growth inhibition by CLSI protocol based broth microdilution assay.
Test [1] concerns Staphylococcus epidermidis. The experiment in a line: Antibacterial activity against Staphylococcus epidermidis assessed as bacterial growth inhibition by CLSI protocol based broth microdilution assay.
A further test relates to Staphylococcus aureus. Nature of the test: Antibacterial activity against Staphylococcus aureus assessed as bacterial growth inhibition by CLSI protocol based broth microdilution assay.

For 5 compounds, MIC results are on record in ChEMBL document CHEMBL5215010, “Dothideomins A-D, Antibacterial Polycyclic Bisanthraquinones from the Endophytic Fungus Dothideomycetes sp. BMC-101” (2022).

≈ marks a conversion by molar mass, not a printed value.

The term MIC denotes the smallest concentration in the dilution series that meets the test's criterion for growth inhibition.

In the case of `Cc1cc(O)c2c(c1)C(=O)C1=C(C2=O)[C@H]2C(O)=C3C(=O)c4c(O)cc(C)cc4C(=O)[C@@]34CC(=O)C1C4[C@H]2O` (stereo not given in full), the MIC (in the test on Bacillus subtilis; in the test on Mycolicibacterium phlei; in test [1]; with Staphylococcus aureus) was 0.4 µg/mL (≈ 0.781 µM) throughout.

Consider `Cc1cc(O)c2c(c1)C(=O)C1=C(C2=O)[C@H]2C(O)=C3C(=O)c4c(O)cc(C)cc4C(=O)[C@@]34C[C@H](O)C1C4[C@H]2O` (stereo not given in full), for which the MIC (in the test on Bacillus subtilis; in the test with Mycolicibacterium phlei; in test [1]; in the test with Staphylococcus aureus) was 1.6 µg/mL (≈ 3.11 µM) throughout.

As for `Cc1cc(O)c2c(c1)C(=O)[C@]13C[C@H](O)C4C1[C@@H](O)[C@H](C(O)=C3C2=O)[C@@]12O[C@@]41C(=O)c1cc(C)cc(O)c1C2=O` (stereo not given in full), the MIC came out at 0.4 µg/mL (≈ 0.754 µM) in the test with Bacillus subtilis, 0.8 µg/mL (≈ 1.51 µM) with Mycolicibacterium phlei, 0.4 µg/mL (≈ 0.754 µM) in test [1] and 0.4 µg/mL (≈ 0.754 µM) in the test with Staphylococcus aureus.

On to `O=C(N[C@H](CO)[C@H](O)c1ccc([N+](=O)[O-])cc1)C(Cl)Cl` [CHLORAMPHENICOL], for which the MIC amounted to 0.8 µg/mL (≈ 2.48 µM) with Bacillus subtilis, 1.3 µg/mL (≈ 4.02 µM) in the test on Mycolicibacterium phlei, 1.5 µg/mL (≈ 4.64 µM) in test [1] and 0.3 µg/mL (≈ 0.928 µM) in the test with Staphylococcus aureus.

For `Cc1cc(O)c2c(c1)C(=O)[C@]13C[C@H](O)C4C1[C@@H](O)[C@H](C(O)=C3C2=O)[C@@]12O[C@@]41C(=O)c1cc(C)cc(O)c1[C@H]2O` (stereo not given in full), the MIC was 6.5 µg/mL (≈ 12.2 µM) in the test with Bacillus subtilis, 6.5 µg/mL (≈ 12.2 µM) in the test with Mycolicibacterium phlei, 3.3 µg/mL (≈ 6.2 µM) in test [1] and 6.5 µg/mL (≈ 12.2 µM) with Staphylococcus aureus.
